Legend:
Format in all cases: in vivo
[1] = tested on: galium (catchweed bedstraw, Galium aparine); experiment: Test C pre-/postemergence greenhouse test, plant response rating 0-100; conditions: Postemergence; for Plant response rating, Galium: scale 0 to 100
Procedure, shortened: (§1)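 Greenhouse test. Preemergence: seed in loam:sand, sprayed with formulated chemical (solvent + surfactant). Postemergence: 1–4 leaf plants, 2–18 cm, peat-based potting medium. Hold 13–15 d; score visually, 0 (none) to 100 (complete control); dash = not tested.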

[2] = tested on: ragweed (common ragweed, Ambrosia elatior); experiment: as above; conditions: Postemergence; for Plant response rating, Ragweed: scale 0 to 100
Procedure, shortened: as §1

[3] = tested on: morningglory (Ipomoea coccinea); experiment: as above; conditions: Postemergence; for Plant response rating, Morningglory: scale 0 to 100
Procedure, shortened: as §1

[4] = tested on: velvetleaf (Abutilon theophrasti); experiment: as above; conditions: Postemergence; for Plant response rating, Velvetleaf: scale 0 to 100
Procedure, shortened: as §1

[5] = tested on: Italian ryegrass (Lolium multiflorum); experiment: as above; conditions: Postemergence; for Plant response rating, Ryegrass, Italian: scale 0 to 100
Procedure, shortened: as §1

[6] = tested on: morningglory (Ipomoea spp.); experiment: Test A pre-/postemergence greenhouse herbicide test, visual injury rating 0-100
Procedure, shortened: (§2)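 Each species was treated both before emergence, via soil spray onto a loam–sand blend, and after emergence at the one- to two-leaf stage. Plants stayed in the greenhouse around 10 days before visual injury assessment.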

[7] = tested on: pigweed (Amaranthus retroflexus); experiment: as above
Procedure, shortened: as §2

[8] = tested on: giant foxtail (Setaria faberii); experiment: as above
Procedure, shortened: as §2

[9] = tested on: corn (Zea mays); experiment: as above
Procedure, shortened: as §2

[10] = tested on: barnyardgrass (Echinochloa crus-galli); experiment: as above
Procedure, shortened: as §2

[11] = tested on: wheat (Triticum aestivum); experiment: as above
Procedure, shortened: as §2

[12] = tested on: velvetleaf (Abutilon theophrasti); experiment: as above
Procedure, shortened: as §2

[13] = tested on: large (Lg) crabgrass (Digitaria sanguinalis); experiment: as above
Procedure, shortened: as §2

SMILES: Fc1cccc(NN=C(c2ccccc2)c2c[nH]nc2-c2cc(Cl)cc(Cl)c2)c1 [Compound 58]
- Plant response rating (0 to 100), Galium ([1]; 62 g ai/ha): 0
- Plant response rating (0 to 100), Galium ([1]; 125 g ai/ha): 0
- Plant response rating, Galium ([1]; 250 g ai/ha): 0
- Plant response rating, Galium ([1]; 500 g ai/ha): 5
- Plant response rating (0 to 100), Ragweed ([2]; 62 g ai/ha): 10
- Plant response rating (0 to 100), Ragweed ([2]; 125 g ai/ha): 40
- Plant response rating, Ragweed ([2]; 250 g ai/ha): 50
- Plant response rating, Ragweed ([2]; 500 g ai/ha): 65
- Plant response rating (0 to 100), Morningglory ([3]; 62 g ai/ha): 0
- Plant response rating (0 to 100), Morningglory ([3]; 125 g ai/ha): 0
- Plant response rating, Morningglory ([3]; 250 g ai/ha): 0
- Plant response rating, Morningglory ([3]; 500 g ai/ha): 0
- Plant response rating (0 to 100), Velvetleaf ([4]; 62 g ai/ha): 60
- Plant response rating (0 to 100), Velvetleaf ([4]; 125 g ai/ha): 65
- Plant response rating, Velvetleaf ([4]; 250 g ai/ha): 70
- Plant response rating, Velvetleaf ([4]; 500 g ai/ha): 75
- Plant response rating (0 to 100), Ryegrass, Italian ([5]; 62 g ai/ha): 0
- Plant response rating (0 to 100), Ryegrass, Italian ([5]; 125 g ai/ha): 0
- Plant response rating, Ryegrass, Italian ([5]; 250 g ai/ha): 0
- Plant response rating, Ryegrass, Italian ([5]; 500 g ai/ha): 0
- Plant response rating (0 to 100 scale), Morningglory ([6]; Postemergence, 1000 g ai/ha): 0
- Plant response rating (0 to 100 scale), Morningglory ([6]; Preemergence, 1000 g ai/ha): 0
- Plant response rating (0 to 100 scale), Pigweed ([7]; Postemergence, 1000 g ai/ha): 90
- Plant response rating (0 to 100 scale), Pigweed ([7]; Preemergence, 1000 g ai/ha): 100
- Plant response rating (0 to 100 scale), Foxtail, Giant ([8]; Postemergence, 1000 g ai/ha): 0
- Plant response rating (0 to 100 scale), Foxtail, Giant ([8]; Preemergence, 1000 g ai/ha): 0
- Plant response rating (0 to 100 scale), Corn ([9]; Postemergence, 1000 g ai/ha): 0
- Plant response rating (0 to 100 scale), Corn ([9]; Preemergence, 1000 g ai/ha): 0
- Plant response rating (0 to 100 scale), Barnyardgrass ([10]; Postemergence, 1000 g ai/ha): 0
- Plant response rating (0 to 100 scale), Barnyardgrass ([10]; Preemergence, 1000 g ai/ha): 0
- Plant response rating (0 to 100 scale), Wheat ([11]; Postemergence, 1000 g ai/ha): 0
- Plant response rating (0 to 100 scale), Wheat ([11]; Preemergence, 1000 g ai/ha): 0
- Plant response rating (0 to 100 scale), Velvetleaf ([12]; Postemergence, 1000 g ai/ha): 90
- Plant response rating (0 to 100 scale), Velvetleaf ([12]; Preemergence, 1000 g ai/ha): 90
- Plant response rating (0 to 100 scale), Crabgrass, Large ([13]; Postemergence, 1000 g ai/ha): 0
- Plant response rating (0 to 100 scale), Crabgrass, Large ([13]; Preemergence, 1000 g ai/ha): 0

SMILES: C=CCn1cc(C(=O)c2ccccc2)c(-c2cc(Cl)cc(Cl)c2)n1 [Compound 60]
- Plant response rating (0 to 100), Galium ([1]; 31 g ai/ha): 0
- Plant response rating (0 to 100), Galium ([1]; 62 g ai/ha): 0
- Plant response rating (0 to 100), Galium ([1]; 125 g ai/ha): 0
- Plant response rating, Galium ([1]; 250 g ai/ha): 0
- Plant response rating (0 to 100), Ragweed ([2]; 62 g ai/ha): 30
- Plant response rating (0 to 100), Ragweed ([2]; 125 g ai/ha): 30
- Plant response rating, Ragweed ([2]; 250 g ai/ha): 35
- Plant response rating (0 to 100), Morningglory ([3]; 62 g ai/ha): 0
- Plant response rating (0 to 100), Morningglory ([3]; 125 g ai/ha): 0
- Plant response rating, Morningglory ([3]; 250 g ai/ha): 0
- Plant response rating (0 to 100), Velvetleaf ([4]; 62 g ai/ha): 70
- Plant response rating (0 to 100), Velvetleaf ([4]; 125 g ai/ha): 70
- Plant response rating, Velvetleaf ([4]; 250 g ai/ha): 80
- Plant response rating (0 to 100), Ryegrass, Italian ([5]; 62 g ai/ha): 0
- Plant response rating (0 to 100), Ryegrass, Italian ([5]; 125 g ai/ha): 0
- Plant response rating, Ryegrass, Italian ([5]; 250 g ai/ha): 0
- Plant response rating (0 to 100 scale), Morningglory ([6]; Postemergence, 125 g ai/ha): 0
- Plant response rating (0 to 100 scale), Morningglory ([6]; Postemergence, 500 g ai/ha): 0
- Morningglory plant response rating (0 = no effect, 100 = complete control) ([6]; Preemergence, 125 g ai/ha): 0
- Plant response rating (0 to 100 scale), Morningglory ([6]; Preemergence, 500 g ai/ha): 0
- Plant response rating (0 to 100 scale), Pigweed ([7]; Postemergence, 125 g ai/ha): 80
- Plant response rating (0 to 100 scale), Pigweed ([7]; Postemergence, 500 g ai/ha): 90
- Pigweed plant response rating (0 = no effect, 100 = complete control) ([7]; Preemergence, 125 g ai/ha): 60
- Plant response rating (0 to 100 scale), Pigweed ([7]; Preemergence, 500 g ai/ha): 90
- Plant response rating (0 to 100 scale), Foxtail, Giant ([8]; Postemergence, 125 g ai/ha): 0
- Plant response rating (0 to 100 scale), Foxtail, Giant ([8]; Postemergence, 500 g ai/ha): 0
- Foxtail, Giant plant response rating (0 = no effect, 100 = complete control) ([8]; Preemergence, 125 g ai/ha): 0
- Plant response rating (0 to 100 scale), Foxtail, Giant ([8]; Preemergence, 500 g ai/ha): 0
- Plant response rating (0 to 100 scale), Corn ([9]; Postemergence, 125 g ai/ha): 0
- Plant response rating (0 to 100 scale), Corn ([9]; Postemergence, 500 g ai/ha): 0
- Corn plant response rating (0 = no effect, 100 = complete control) ([9]; Preemergence, 125 g ai/ha): 0
- Plant response rating (0 to 100 scale), Corn ([9]; Preemergence, 500 g ai/ha): 0
- Plant response rating (0 to 100 scale), Barnyardgrass ([10]; Postemergence, 125 g ai/ha): 0
- Plant response rating (0 to 100 scale), Barnyardgrass ([10]; Postemergence, 500 g ai/ha): 0
- Barnyardgrass plant response rating (0 = no effect, 100 = complete control) ([10]; Preemergence, 125 g ai/ha): 0
- Plant response rating (0 to 100 scale), Barnyardgrass ([10]; Preemergence, 500 g ai/ha): 0
- Plant response rating (0 to 100 scale), Wheat ([11]; Postemergence, 125 g ai/ha): 0
- Plant response rating (0 to 100 scale), Wheat ([11]; Postemergence, 500 g ai/ha): 0
- Wheat plant response rating (0 = no effect, 100 = complete control) ([11]; Preemergence, 125 g ai/ha): 0
- Plant response rating (0 to 100 scale), Velvetleaf ([12]; Postemergence, 125 g ai/ha): 90
- Plant response rating (0 to 100 scale), Velvetleaf ([12]; Postemergence, 500 g ai/ha): 90
- Velvetleaf plant response rating (0 = no effect, 100 = complete control) ([12]; Preemergence, 125 g ai/ha): 30
- Plant response rating (0 to 100 scale), Velvetleaf ([12]; Preemergence, 500 g ai/ha): 40
- Plant response rating (0 to 100 scale), Crabgrass, Large ([13]; Postemergence, 125 g ai/ha): 0
- Plant response rating (0 to 100 scale), Crabgrass, Large ([13]; Postemergence, 500 g ai/ha): 0
- Crabgrass, Large plant response rating (0 = no effect, 100 = complete control) ([13]; Preemergence, 125 g ai/ha): 0
- Plant response rating (0 to 100 scale), Crabgrass, Large ([13]; Preemergence, 500 g ai/ha): 0

From patent publication US10167262B2, “Herbicidal substituted 3-arylpyrazoles” (FMC CORPORATION, priority 2014, dated 2019)
